Source: patent US8519149B2, “Tricyclic compounds as mPGES-1 inhibitors” (Glenmark Pharmaceuticals S.A., priority 2010, dated 2013)

Target: T1, Recombinant human mPGES-1 (Homo sapiens, UniProt O14684)
T1 sequence (O14684 1-152): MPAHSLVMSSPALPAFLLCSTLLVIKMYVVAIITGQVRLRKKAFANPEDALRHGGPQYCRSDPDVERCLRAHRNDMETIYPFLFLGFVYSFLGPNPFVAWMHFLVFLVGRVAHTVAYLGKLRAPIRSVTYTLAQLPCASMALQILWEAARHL
Assay: In-vitro mPGES-1 enzyme inhibition assay (PGE2 formation from PGH2, HTRF detection)
Format: biochemical
Details: for inhibition at 1 µM: 1 μM test compound, read-out: Percentage inhibition at 1 μM; for inhibition at 1 µM / inhibition at 10 µM: recombinant human mPGES-1 microsomal fraction; for inhibition at 10 µM: 10 μM test compound, read-out: Percentage inhibition at 10 μM; for IC50: class symbols, selected examples
How it was run: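 IC50 values were derived by nonlinear regression of percent inhibition relative to enzyme reactions run without inhibitor. PGE2 formed from PGH2 with GSH was quantified by antibody-based HTRF after stannous chloride quench. Enzyme source was human mPGES-1 microsomes at 40-60 μg/mL protein; DMSO 0.5% (v/v).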

Row | Structure (SMILES) | inhibition at 1 µM [%] | inhibition at 10 µM [%] | IC50 [nM]
1 | CC1(C)Cc2c(c(C(=O)Nc3cccc(F)c3)cc3nc(Nc4c(F)cccc4Cl)[nH]c23)O1 [Example-56, 2-[(2-Chloro-6-fluorophenyl)amino]-N-(3-fluorophenyl)-7,7-dimethyl-7,8-dihydro-1H-furo[3,2-e]benzimidazole-5-carboxamide] | 96 | 98.2 | < 50
2 | CC1(C)Cc2c(c(C(=O)NN3CCCC3)cc3nc(Nc4c(Cl)cccc4Cl)[nH]c23)O1 [Example-58, 2-[(2,6-Dichlorophenyl)amino]-7,7-dimethyl-N-(pyrrolidin-1-yl)-7,8-dihydro-1H-furo[3,2-e]benzimidazole-5-carboxamide] | 63.3 | 95.4 | 
3 | CC1(C)Cc2c(c(C(=O)Nc3nc(C(C)(C)C)cs3)cc3nc(Nc4c(F)cccc4Cl)[nH]c23)O1 [Example-53, N-(4-tert-Butyl-1,3-thiazol-2-yl)-2-[(2-chloro-6-fluorophenyl)amino]-7,7-dimethyl-7,8-dihydro-1H-furo[3,2-e]benzimidazole-5-carboxamide] | 47.2 | 85.4 | 
4 | CC(NC(=O)c1cc2nc(Nc3c(Cl)cncc3Cl)[nH]c2c2c1OC(C)(C)C2)C1CCCCC1 (stereo not drawn) [Example-5, N-(1-Cyclohexylethyl)-2-[(3,5-dichloropyridin-4-yl)amino]-7,7-dimethyl-7,8-dihydro-1H-furo[3,2-e]benzimidazole-5-carboxamide] | 97.7 | 97.8 | < 50
5 | CC1(C)Cc2c(c(C(=O)Nc3ccc(F)c(F)c3F)cc3nc(Nc4c(Cl)cncc4Cl)[nH]c23)O1 [Example-212, 2-((3,5-Dichloropyridin-4-yl)amino)-7,7-dimethyl-N-(2,3,4-trifluorophenyl)-7,8-dihydro-1H-benzofuro[4,5-d]imidazole-5-carboxamide] | 95.1 | 98.8 | < 50
6 | Cc1ccc(Nc2nc3cc(C(=O)NCc4ccc(C(F)(F)F)cc4)c4c(c3[nH]2)CC(C)(C)O4)c(Cl)c1 [Example-92, 2-[(2-Chloro-4-methylphenyl)amino]-7,7-dimethyl-N-[4-(trifluoromethyl)benzyl]-7,8-dihydro-1H-furo[3,2-e]benzimidazole-5-carboxamide] | 75.4 | 76 | 
7 | Cc1cccc(Cl)c1Nc1nc2cc(C(=O)Nc3cc(C4CC4)ccc3F)c3c(c2[nH]1)CC(C)(C)O3 [Example-136, 2-((2-Chloro-6-methylphenyl)amino)-N-(5-cyclopropyl-2-fluorophenyl)-7,7-dimethyl-7,8-dihydro-1H-benzofuro[4,5-d]imidazole-5-carboxamide] | 89.4 | 96.9 | < 50
8 | Cc1csc(NC(=O)c2cc3nc(Nc4c(F)cccc4Cl)[nH]c3c3c2OC(C)(C)C3)n1 [Example-54, 2-[(2-Chloro-6-fluorophenyl)amino]-7,7-dimethyl-N-(4-methyl-1,3-thiazol-2-yl)-7,8-dihydro-1H-furo[3,2-e]benzimidazole-5-carboxamide] | 79.2 | 92.8 | 
9 | CC1(C)Cc2c(c(C(=O)NCc3ccc(F)cc3)cc3nc(Nc4c(F)cccc4Cl)[nH]c23)O1 [Example-39, 2-[(2-Chloro-6-fluorophenyl)amino]-N-(4-fluorobenzyl)-7,7-dimethyl-7,8-dihydro-1H-furo[3,2-e]benzimidazole-5-carboxamide] | 92.5 | 70.7 | < 50
10 | CC1(C)Cc2c(c(C(=O)Nc3ccccc3C(F)(F)F)cc3nc(Nc4c(F)cccc4Cl)[nH]c23)O1 [Example-77, 2-[(2-Chloro-6-fluorophenyl)amino]-7,7-dimethyl-N-[2-(trifluoromethyl)phenyl]-7,8-dihydro-1H-furo[3,2-e]benzimidazole-5-carboxamide] | 93.1 | 89.9 | < 50
11 | CC1(C)Cc2c(c(C(=O)Nc3ccc(Br)cc3)cc3nc(Nc4ccccc4Cl)[nH]c23)O1 [Example-78, N-(4-Bromophenyl)-2-[(2-chlorophenyl)amino]-7,7-dimethyl-7,8-dihydro-1H-furo[3,2-e]benzimidazole-5-carboxamide] | 88.5 | 96.4 | < 50
12 | CC1(C)Cc2c(c(C(=O)NCc3ccccc3C(F)(F)F)cc3nc(Nc4c(Cl)cncc4Cl)[nH]c23)O1 [Example-2, 2-[(3,5-Dichloropyridin-4-yl)amino]-7,7-dimethyl-N-[2-(trifluoromethyl)benzyl]-7,8-dihydro-1H-furo[3,2-e]benzimidazole-5-carboxamide] | 97 | 99.6 | < 50
13 | Cc1cc2c(o1)c(C(=O)NCC1CCCCC1)cc1nc(Nc3c(F)cccc3Cl)[nH]c12 [Example-49, 2-[(2-Chloro-6-fluorophenyl)amino]-N-(cyclohexylmethyl)-7-methyl-1H-furo[3,2-e]benzimidazole-5-carboxamide] | 91.6 | 96.1 | 
14 | CC1(C)Cc2c(c(C(=O)Nc3cc(C(F)F)ccc3F)cc3nc(Nc4c(F)cccc4Cl)[nH]c23)O1 [Example-131, 2-((2-Chloro-6-fluorophenyl)amino)-N-(5-(difluoromethyl)-2-fluorophenyl)-7,7-dimethyl-7,8-dihydro-1H-benzofuro[4,5-d]imidazole-5-carboxamide] | 96.9 | 98.1 | < 50
15 | CC(C)(C)CC(C)(C)NC(=O)c1cc2nc(Nc3c(Cl)cncc3Cl)[nH]c2c2c1OC(C)(C)C2 [Example-25, 2-[(3,5-Dichloropyridin-4-yl)amino]-7,7-dimethyl-N-(2,4,4-trimethylpentan-2-yl)-7,8-dihydro-1H-furo[3,2-e]benzimidazole-5-carboxamide] | 92 | 98.2 | < 50
16 | Cc1ccc(Cl)c(Nc2nc3cc(C(=O)Nc4ccccc4C(F)(F)F)c4c(c3[nH]2)CC(C)(C)O4)c1 [Example-97, 2-[(2-Chloro-5-methylphenyl)amino]-7,7-dimethyl-N-[2-(trifluoromethyl)phenyl]-7,8-dihydro-1H-furo[3,2-e]benzimidazole-5-carboxamide] | 96.7 | 95.3 | < 50
17 | CC1(C)Cc2c(c(C(=O)Nc3cc(C4CC4)ccc3F)cc3nc(Nc4c(F)cccc4Cl)[nH]c23)O1 [Example-134, 2-((2-Chloro-6-fluorophenyl)amino)-N-(5-cyclopropyl-2-fluorophenyl)-7,7-dimethyl-7,8-dihydro-1H-benzofuro[4,5-d]imidazole-5-carboxamide] | 99.9 | 99.4 | < 50

More lines, now with the values ahead:

Row | inhibition at 1 µM [%] | inhibition at 10 µM [%] | IC50 [nM] | Structure (SMILES)
18 | 99.2 | 100 | 50 to 100 | Cc1cccc(Cl)c1Nc1nc2cc(C(=O)Nc3ccc(C(F)(F)F)nc3)c3c(c2[nH]1)CC(C)(C)O3 [Example-160, 2-((2-Chloro-6-methylphenyl)amino)-7,7-dimethyl-N-(6-(trifluoromethyl)pyridin-3-yl)-7,8-dihydro-1H-benzofuro[4,5-d]imidazole-5-carboxamide]
19 | 93.3 | 95.4 | 50 to 100 | Cc1cc2c(o1)c(C(=O)NCc1ccccc1C(F)(F)F)cc1nc(Nc3c(Cl)cccc3Cl)[nH]c12 [Example-85, 2-[(2,6-Dichlorophenyl)amino]-7-methyl-N-[2-(trifluoromethyl)benzyl]-1H-furo[3,2-e]benzimidazole-5-carboxamide]
20 | 97.9 | 97.5 | < 50 | Cc1ccc(NC(=O)c2cc3nc(Nc4c(Cl)cccc4Cl)[nH]c3c3c2OC(C)(C)C3)c(F)c1 [Example-142, 2-((2,6-Dichlorophenyl)amino)-N-(2-fluoro-4-methylphenyl)-7,7-dimethyl-7,8-dihydro-1H-benzofuro[4,5-d]imidazole-5-carboxamide]
21 | 98.7 | 97.3 | < 50 | Cc1nc2c(o1)c(C(=O)Nc1ccc(C(C)(C)C)cc1)cc1nc(Nc3c(Cl)cccc3Cl)[nH]c12 [Example-180, N-(4-tert-Butylphenyl)-7-[(2,6-dichlorophenyl)amino]-2-methyl-8H-imidazo[4,5-e][1,3]benzoxazole-4-carboxamide]
22 | 91.4 | 98.2 | < 50 | Cc1nc2c(o1)c(C(=O)Nc1ccc(C(F)(F)F)cc1)cc1nc(Nc3c(Cl)cccc3Cl)[nH]c12 [Example-178, 7-[(2,6-Dichlorophenyl)amino]-2-methyl-N-[4-(trifluoromethyl)phenyl]-8H-imidazo[4,5-e][1,3]benzoxazole-4-carboxamide]
23 | 95.3 | 95 | < 50 | CC1(C)Cc2c(c(C(=O)Nc3ccc(F)cc3)cc3nc(Nc4c(Cl)cncc4Cl)[nH]c23)O1 [Example-24, 2-[(3,5-Dichloropyridin-4-yl)amino]-N-(4-fluorophenyl)-7,7-dimethyl-7,8-dihydro-1H-furo[3,2-e]benzimidazole-5-carboxamide]
24 | 93.4 | 94.7 | 50 to 100 | CC1(C)Cc2c(c(C(=O)NNc3ccc(Br)cc3)cc3nc(Nc4c(Cl)cccc4Cl)[nH]c23)O1 [Example-74]
25 | 7.88 | 25.8 |  | Cc1ccc(Nc2nc3cc(C(=O)Nc4ccc(C(F)(F)F)cc4)c4c(c3[nH]2)CC(C)(C)O4)c(C)n1 [Example-103, 2-[(2,6-Dimethylpyridin-3-yl)amino]-7,7-dimethyl-N-[4-(trifluoromethyl)phenyl]-7,8-dihydro-1H-furo[3,2-e]benzimidazole-5-carboxamide]
